Experiment: xn = mol fraction of the nth substance listed
Details: 101 kPa, Liquid; for viscosity: Concentric cylinders viscometry; for mass density: Vibrating tube method

CC(O)CN (stereo not given) [1-amino-2-propanol] + CCCCO
Details	mass density, 313.15 K [kg/m3]	mass density, 318.15 K [kg/m3]	mass density, 323.15 K [kg/m3]	mass density, 328.15 K [kg/m3]	mass density, 333.15 K [kg/m3]	viscosity, 313.15 K [mPa·s]	viscosity, 318.15 K [mPa·s]	viscosity, 323.15 K [mPa·s]	viscosity, 328.15 K [mPa·s]	viscosity, 333.15 K [mPa·s]
x1 = 0.1	807.768	803.791	799.764	795.685	791.549	2.03	1.801	1.606	1.436	1.302
x1 = 0.2005	821.766	817.764	813.705	809.606	805.451	2.389	2.104	1.865	1.662	1.499
x1 = 0.3	835.94	831.911	827.834	823.708	819.532	2.801	2.445	2.144	1.887	1.699
x1 = 0.3999	850.406	846.355	842.264	838.127	833.936	3.377	2.915	2.535	2.218	1.973
x1 = 0.5	865.257	861.194	857.087	852.936	848.734	4.049	3.454	2.973	2.579	2.286
x1 = 0.6001	880.518	876.438	872.324	868.161	863.951	4.929	4.159	3.541	3.047	2.663
x1 = 0.7	896.106	892.017	887.889	883.72	879.505	5.957	4.969	4.192	3.568	3.099
x1 = 0.8	912.054	907.96	903.828	899.655	895.441	7.272	5.989	4.994	4.211	3.618
x1 = 0.8997	928.196	924.096	919.961	915.789	911.577	8.9	7.238	5.96	4.976	4.225
x1 = 1	944.515	940.423	936.293	932.13	927.93	10.96	8.798	7.166	5.915	4.986
